“And” between values parts separate entries of the source, which are not always exact repeats. Identical values can stand only once. Toxic doses and inconclusive results are not listed. Cut-off read from the data, not from the text of the source: active = T/C of 150% or more; inactive = T/C below 125%.
System: L1210 leukemia ip in BDF1 mice, survival T/C
Assay: NCI In Vivo Anticancer Drug Screen. Data for tumor model L1210 Leukemia (intraperitoneal) in B6D2F1 (BDF1) mice
Conditions: higher = longer survival
In short: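 Survival endpoint. Drug-treated group vs vehicle group, expressed as T divided by C. Tumor passaged by transplantation.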

[1] = endpoint: mean survival time, dose: 100.0 mg/kg/injection, schedule: Q01DX001 (ip), vehicle: carboxymethylcellulose (CMC)
[2] = endpoint: mean survival time, dose: 200.0 mg/kg/injection, schedule: Q01DX001 (ip), vehicle: carboxymethylcellulose (CMC)
[3] = endpoint: mean survival time, dose: 400.0 mg/kg/injection, schedule: Q01DX001 (ip), vehicle: carboxymethylcellulose (CMC)

Measured: T/C

C=CC[N+](C)(CC=C)CC[N+](C)(CC=C)CC=C
inactive: endpoint: mean survival time, dose: 50.0 mg/kg/injection, schedule: Q01DX009 (ip), vehicle: water 93 % of control | endpoint: mean survival time, dose: 100.0 mg/kg/injection, schedule: Q01DX009 (ip), vehicle: water 95 % of control | endpoint: mean survival time, dose: 100.0 mg/kg/injection, schedule: Q04DX003 (ip), vehicle: water 94 % of control | endpoint: mean survival time, dose: 200.0 mg/kg/injection, schedule: Q04DX003 (ip), vehicle: water 96 % of control

CN(C)CCCNc1ccc(O)c2c1C(=O)c1ccccc1C2=O
inactive: endpoint: mean survival time, dose: 50.0 mg/kg/injection, schedule: Q01DX009 (ip), vehicle: saline 100 % of control | endpoint: mean survival time, dose: 100.0 mg/kg/injection, schedule: Q01DX009 (ip), vehicle: saline 95 % of control | endpoint: mean survival time, dose: 200.0 mg/kg/injection, schedule: Q01DX009 (ip), vehicle: saline 106 % of control | endpoint: mean survival time, dose: 400.0 mg/kg/injection, schedule: Q01DX009 (ip), vehicle: saline 105 % of control

O=C(O)C(O)C(O)C(O)CO.[Zn+2] (configuration not stated)
inactive: endpoint: mean survival time, dose: 6.25 mg/kg/injection, schedule: Q01DX009 (ip), vehicle: saline with Tween-80 95 % of control | endpoint: mean survival time, dose: 6.25 mg/kg/injection, schedule: Q04DX002 (ip), vehicle: saline with Tween-80 124 % of control | endpoint: mean survival time, dose: 12.5 mg/kg/injection, schedule: Q01DX009 (ip), vehicle: saline with Tween-80 105 % of control and 100 % of control | endpoint: mean survival time, dose: 12.5 mg/kg/injection, schedule: Q04DX002 (ip), vehicle: saline with Tween-80 109 % of control | endpoint: mean survival time, dose: 25.0 mg/kg/injection, schedule: Q01DX009 (ip), vehicle: saline with Tween-80 91 % of control | endpoint: mean survival time, dose: 25.0 mg/kg/injection, schedule: Q04DX002 (ip), vehicle: saline with Tween-80 95 % of control | endpoint: mean survival time, dose: 50.0 mg/kg/injection, schedule: Q01DX009 (ip), vehicle: saline with Tween-80 91 % of control

C=CC1CC2C=CC1C2 (configuration not stated)
inactive: endpoint: mean survival time, dose: 100.0 mg/kg/injection, schedule: Q04DX003 (ip), vehicle: saline 100 % of control | endpoint: mean survival time, dose: 200.0 mg/kg/injection, schedule: Q04DX003 (ip), vehicle: saline 103 % of control | endpoint: mean survival time, dose: 400.0 mg/kg/injection, schedule: Q04DX003 (ip), vehicle: saline 106 % of control

O=C1c2ccccc2-c2cc(Cl)cc(Cl)c21
inactive: [1] 95 % of control | [2] 96 % of control | [3] 102 % of control

O=C(Nc1ccc(S(=O)(=O)NC2CCCCC2)cc1)OC1CCCCC1
inactive: endpoint: mean survival time, dose: 100.0 mg/kg/injection, schedule: Q01DX001 (ip), vehicle: saline 92 % of control | endpoint: mean survival time, dose: 200.0 mg/kg/injection, schedule: Q01DX001 (ip), vehicle: saline 90 % of control | endpoint: mean survival time, dose: 400.0 mg/kg/injection, schedule: Q01DX001 (ip), vehicle: saline 94 % of control

O=C(Nc1ccccc1)c1cc(Cl)ccn1
inactive: [1] 100 % of control | [2] 97 % of control | [3] 97 % of control

Cc1nc(-c2ccccc2)[nH]c(=O)c1CC(O)c1ccccc1 (configuration not stated)
inactive: endpoint: mean survival time, dose: 100.0 mg/kg/injection, schedule: Q04DX003 (ip), vehicle: Klucel (hydroxypropylcellulose) (HPC) 86 % of control | endpoint: mean survival time, dose: 200.0 mg/kg/injection, schedule: Q04DX003 (ip), vehicle: Klucel (hydroxypropylcellulose) (HPC) 92 % of control | endpoint: mean survival time, dose: 400.0 mg/kg/injection, schedule: Q04DX003 (ip), vehicle: Klucel (hydroxypropylcellulose) (HPC) 87 % of control

CCOC(=O)c1[nH]c(C)c(C(=O)OCC)c1C
inactive: endpoint: mean survival time, dose: 50.0 mg/kg/injection, schedule: Q01DX009 (ip), vehicle: Klucel (hydroxypropylcellulose) (HPC) 95 % of control | endpoint: mean survival time, dose: 100.0 mg/kg/injection, schedule: Q01DX009 (ip), vehicle: Klucel (hydroxypropylcellulose) (HPC) 95 % of control | endpoint: mean survival time, dose: 100.0 mg/kg/injection, schedule: Q04DX002 (ip), vehicle: saline with Tween-80 99 % of control | endpoint: mean survival time, dose: 200.0 mg/kg/injection, schedule: Q01DX009 (ip), vehicle: Klucel (hydroxypropylcellulose) (HPC) 103 % of control | endpoint: mean survival time, dose: 200.0 mg/kg/injection, schedule: Q04DX002 (ip), vehicle: saline with Tween-80 102 % of control | endpoint: mean survival time, dose: 400.0 mg/kg/injection, schedule: Q04DX002 (ip), vehicle: saline with Tween-80 102 % of control | endpoint: median survival time, dose: 10.0 mg/kg/injection, schedule: Q04DX002 (ip), vehicle: Klucel (hydroxypropylcellulose) (HPC) 100 % of control | endpoint: median survival time, dose: 200.0 mg/kg/injection, schedule: Q04DX002 (ip), vehicle: Klucel (hydroxypropylcellulose) (HPC) 89 % of control | endpoint: median survival time, dose: 400.0 mg/kg/injection, schedule: Q04DX002 (ip), vehicle: Klucel (hydroxypropylcellulose) (HPC) 107 % of control

O=C1C2C3CCC(O3)C2C(=O)N1CCO (configuration not stated)
inactive: endpoint: mean survival time, dose: 100.0 mg/kg/injection, schedule: Q04DX002 (ip), vehicle: saline 109 % of control | endpoint: mean survival time, dose: 200.0 mg/kg/injection, schedule: Q04DX002 (ip), vehicle: saline 106 % of control | endpoint: mean survival time, dose: 400.0 mg/kg/injection, schedule: Q04DX002 (ip), vehicle: saline 98 % of control

— PubChem BioAssay AID248 (DTP/NCI, 2004)
